Several values for one entry are separate records, joined by “and”; a condition that tells them apart may be missing. Equal entries are not always repeated. Where two headings read alike, the source gives them in different places.
How the values were obtained:
P. falciparum Dd2-2D4 = assay: P. falciparum asexual blood stage (ABS) growth assay, SYBR Green, 72 h, wild-type parasites; assay type: cell-based, Plasmodium falciparum; settings: for EC50: Plasmodium falciparum, DD2, SI Fig 16b, values on -log scale, read-out: ABS - Dd2-2D4 (converted)
PfcProRS = target: T1, PfcProRS (Plasmodium falciparum, UniProt Q8I5R7); assay type: binding; settings: for Normalized response, dose-response replicates (SI Fig 14): replicates 1-3; for PfcProRS -- best Kd: SI Fig 16a, values on -log scale
T1 construct: made in house; host or cells: E. coli SoluBL-21

HsProRS = HsProRS (Homo sapiens, UniProt P07814); assay: TR-FRET ligand displacement assay with tracer MAT379 (CoraFluor-1-Halo and anti-His6 antibody formats); assay type: binding; set-up: made in house; host or cells: E. coli SoluBL-21
[1] = HsProRS (KD [nM]) + 100 μM proline mean, + 100 μM proline
[2] = HsProRS (KD [nM]) mean, no added proline/ATP (-)
[3] = read-out: HsProRS IC50 + 100 μM proline, + 100 μM proline

Chain of HsProRS (P07814 996-1512): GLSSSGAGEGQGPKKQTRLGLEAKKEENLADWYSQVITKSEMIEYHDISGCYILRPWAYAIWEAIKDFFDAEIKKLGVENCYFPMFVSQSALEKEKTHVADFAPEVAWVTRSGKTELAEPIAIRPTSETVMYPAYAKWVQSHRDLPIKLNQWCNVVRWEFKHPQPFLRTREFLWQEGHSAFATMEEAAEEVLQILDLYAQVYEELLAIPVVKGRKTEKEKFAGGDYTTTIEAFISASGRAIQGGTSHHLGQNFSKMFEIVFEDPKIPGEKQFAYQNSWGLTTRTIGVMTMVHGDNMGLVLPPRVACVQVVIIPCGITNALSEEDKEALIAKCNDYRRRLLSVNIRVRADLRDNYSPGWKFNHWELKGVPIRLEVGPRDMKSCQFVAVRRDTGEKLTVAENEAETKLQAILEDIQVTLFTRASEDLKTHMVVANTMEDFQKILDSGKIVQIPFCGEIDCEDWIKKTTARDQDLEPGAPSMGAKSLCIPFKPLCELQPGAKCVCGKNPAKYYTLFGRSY
T1 sequence (Q8I5R7 249-746): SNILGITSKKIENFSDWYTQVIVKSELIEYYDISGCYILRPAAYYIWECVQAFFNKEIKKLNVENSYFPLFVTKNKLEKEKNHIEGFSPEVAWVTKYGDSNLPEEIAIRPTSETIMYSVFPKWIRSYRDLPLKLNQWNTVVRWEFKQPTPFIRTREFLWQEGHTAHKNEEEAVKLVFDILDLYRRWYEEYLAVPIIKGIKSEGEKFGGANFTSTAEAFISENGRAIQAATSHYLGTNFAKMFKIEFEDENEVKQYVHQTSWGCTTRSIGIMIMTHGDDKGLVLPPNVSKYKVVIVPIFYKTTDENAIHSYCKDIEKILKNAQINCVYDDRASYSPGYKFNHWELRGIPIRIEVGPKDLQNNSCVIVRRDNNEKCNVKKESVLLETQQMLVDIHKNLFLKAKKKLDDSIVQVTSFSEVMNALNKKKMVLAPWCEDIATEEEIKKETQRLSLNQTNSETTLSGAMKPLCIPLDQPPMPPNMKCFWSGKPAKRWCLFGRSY

Row | Compound | EC50 (P. falciparum Dd2-2D4) | Normalized response, dose-response replicates (SI Fig 14) (PfcProRS; Log[inhibitor] (M) -5.000) | Normalized response, dose-response replicates (SI Fig 14) (PfcProRS; Log[inhibitor] (M) -5.301) | Normalized response, dose-response replicates (SI Fig 14) (PfcProRS; Log[inhibitor] (M) -5.601) | Normalized response, dose-response replicates (SI Fig 14) (PfcProRS; Log[inhibitor] (M) -5.904) | Normalized response, dose-response replicates (SI Fig 14) (PfcProRS; Log[inhibitor] (M) -6.208) | Normalized response, dose-response replicates (SI Fig 14) (PfcProRS; Log[inhibitor] (M) -6.509) | Normalized response, dose-response replicates (SI Fig 14) (PfcProRS; Log[inhibitor] (M) -6.796) | Normalized response, dose-response replicates (SI Fig 14) (PfcProRS; Log[inhibitor] (M) -7.108) | Normalized response, dose-response replicates (SI Fig 14) (PfcProRS; Log[inhibitor] (M) -7.409) | Normalized response, dose-response replicates (SI Fig 14) (PfcProRS; Log[inhibitor] (M) -7.710) | Normalized response, dose-response replicates (SI Fig 14) (PfcProRS; Log[inhibitor] (M) -8.000) | Normalized response, dose-response replicates (SI Fig 14) (PfcProRS; Log[inhibitor] (M) -8.301) | Normalized response, dose-response replicates (SI Fig 14) (PfcProRS; Log[inhibitor] (M) -8.602) | Normalized response, dose-response replicates (SI Fig 14) (PfcProRS; Log[inhibitor] (M) -9.000) | Normalized response, dose-response replicates (SI Fig 14) (PfcProRS; Log[inhibitor] (M) -9.301) | IC50 (HsProRS) | HsProRS % signal at 10 μM, + 100 μM proline (HsProRS; + 100 μM proline) | HsProRS % signal at 10 μM (HsProRS; no added proline/ATP (-)) | IC50 (HsProRS; [3]) | further results
1 | CC(C)(C)OC(=O)NCCCCCC(=O)NCC1CCN(C(=O)Nc2nccnc2C(=O)NC2Cc3ccccc3C2)CC1 [compound 43] | 3.33 µM | 3.94E-01 and 2.57E-01 and 2.74E-01 | 4.70E-01 and 4.27E-01 and 4.95E-01 | 6.21E-01 and 6.23E-01 and 5.88E-01 | 7.25E-01 and 7.36E-01 and 7.34E-01 | 8.39E-01 and 7.98E-01 and 7.48E-01 | 9.01E-01 and 9.26E-01 and 9.21E-01 | 8.44E-01 and 9.34E-01 and 8.61E-01 | 8.07E-01 and 9.41E-01 and 7.86E-01 | 8.06E-01 and 8.12E-01 and 9.38E-01 | 9.31E-01 and 8.84E-01 and 7.70E-01 | 9.59E-01 and 9.87E-01 and 9.57E-01 | 1.01E+00 and 8.79E-01 and 9.74E-01 | 9.04E-01 and 9.28E-01 and 9.93E-01 | 8.86E-01 and 8.79E-01 and 9.68E-01 | 8.43E-01 and 8.23E-01 and 8.26E-01 |  |  |  |  | PfcProRS -- best Kd (PfcProRS): 6.495; Kd (HsProRS; [1]): 2280 nM; Kd (HsProRS; [2]): 611 nM
2 | NCCCCCC(=O)NCC1CCN(C(=O)Nc2nccnc2C(=O)NC2Cc3ccccc3C2)CC1 [compound 44] |  | 5.04E-02 and 6.61E-02 and 1.21E-01 | 2.04E-01 and 9.30E-02 and 7.91E-02 | 1.77E-01 and 2.33E-01 and 2.91E-01 | 3.70E-01 and 3.87E-01 and 3.95E-01 | 5.30E-01 and 6.18E-01 and 4.52E-01 | 5.98E-01 and 6.58E-01 and 5.97E-01 | 8.14E-01 and 8.03E-01 and 8.36E-01 | 7.21E-01 and 9.08E-01 and 7.69E-01 | 9.22E-01 and 9.63E-01 and 8.84E-01 | 9.26E-01 and 9.41E-01 and 9.94E-01 | 9.86E-01 and 9.96E-01 and 9.45E-01 | 1.01E+00 and 1.07E+00 and 1.09E+00 | 1.05E+00 and 9.10E-01 and 8.68E-01 | 8.54E-01 and 1.03E+00 and 1.01E+00 | 1.02E+00 and 8.64E-01 and 7.91E-01 |  |  |  |  | % signal at 10 μM, wildtype (Dd2-2D4) (P. falciparum Dd2-2D4; wildtype (Dd2-2D4), 10 μM): 51.4%; PfcProRS -- best Kd (PfcProRS): 6.569; Kd (HsProRS; [2]): 1570 nM; Kd (HsProRS; HsProRS - best Kd, SI Fig 16a, values on -log scale): 330 nM
3 | Nc1nccnc1C(=O)NC1Cc2ccccc2C1 [compound 45] | 13.6 µM | 9.00E-01 and 8.01E-01 and 8.09E-01 | 8.40E-01 and 9.11E-01 and 9.42E-01 | 1.06E+00 and 1.02E+00 and 9.65E-01 | 1.09E+00 (2×) and 1.04E+00 | 9.29E-01 and 9.65E-01 and 9.12E-01 | 8.69E-01 and 9.97E-01 and 9.91E-01 | 1.07E+00 and 1.10E+00 and 9.29E-01 | 1.07E+00 and 1.01E+00 and 9.62E-01 | 8.73E-01 and 9.86E-01 and 1.07E+00 | 9.54E-01 and 1.09E+00 and 1.02E+00 | 9.85E-01 and 1.09E+00 and 1.00E+00 | 1.09E+00 and 9.49E-01 and 9.81E-01 | 1.13E+00 and 9.21E-01 and 9.56E-01 | 1.01E+00 and 9.94E-01 and 8.80E-01 | 9.92E-01 (2×) and 9.81E-01 | > 10 µM | 83.7% | 90.2% | > 10 µM | 
4 | CNc1nccnc1C(=O)NC1Cc2ccccc2C1 [compound 46] | 8.11 µM | 8.16E-01 and 6.16E-01 and 6.52E-01 | 8.98E-01 and 7.41E-01 and 8.21E-01 | 9.35E-01 and 8.99E-01 and 9.60E-01 | 1.14E+00 and 9.86E-01 and 9.79E-01 | 1.04E+00 and 1.02E+00 and 8.92E-01 | 1.02E+00 (2×) and 9.27E-01 | 1.13E+00 and 1.15E+00 and 1.04E+00 | 9.45E-01 and 1.04E+00 and 8.83E-01 | 1.08E+00 and 9.92E-01 and 1.03E+00 | 9.83E-01 and 1.09E+00 and 9.75E-01 | 9.64E-01 and 1.04E+00 and 9.43E-01 | 1.03E+00 (2×) and 1.01E+00 | 1.06E+00 and 9.77E-01 and 1.03E+00 | 9.75E-01 and 9.25E-01 and 9.98E-01 | 9.09E-01 and 1.02E+00 and 8.23E-01 | > 10 µM | 91.7% | 97.1% | > 10 µM | 
5 | O=c1[nH]c2nccnc2c(=O)n1C1Cc2ccccc2C1 [compound 47] | 11.1 µM | 3.53E-01 and 3.73E-01 and 3.10E-01 | 5.89E-01 and 4.94E-01 and 3.58E-01 | 7.17E-01 and 7.23E-01 and 6.31E-01 | 1.01E+00 and 8.61E-01 and 7.86E-01 | 1.02E+00 and 1.03E+00 and 9.13E-01 | 9.57E-01 and 9.63E-01 and 9.85E-01 | 1.08E+00 and 9.96E-01 and 1.07E+00 | 9.59E-01 and 1.12E+00 and 1.15E+00 | 1.11E+00 and 1.34E+00 and 1.10E+00 | 1.07E+00 (2×) and 1.12E+00 | 1.02E+00 and 1.00E+00 and 1.01E+00 | 1.13E+00 and 1.06E+00 and 1.10E+00 | 1.07E+00 and 9.89E-01 and 9.49E-01 | 9.68E-01 and 9.48E-01 and 1.08E+00 | 9.08E-01 and 1.04E+00 and 1.01E+00 | > 10 µM |  | 79.5% |  | Kd (HsProRS; [1]): 2650 nM
6 | Nc1nccnc1C(=O)NC1CCCCC1 [compound 48] | 8.75 µM | 7.98E-01 and 9.64E-01 and 8.59E-01 | 1.00E+00 and 9.90E-01 and 9.60E-01 | 1.12E+00 and 9.39E-01 and 1.04E+00 | 1.09E+00 and 1.16E+00 and 9.71E-01 | 1.14E+00 and 9.41E-01 and 1.00E+00 | 1.15E+00 and 1.05E+00 and 9.08E-01 | 9.89E-01 and 9.81E-01 and 1.09E+00 | 9.93E-01 and 1.12E+00 and 9.45E-01 | 1.04E+00 and 1.09E+00 and 1.06E+00 | 1.09E+00 and 9.79E-01 and 1.07E+00 | 1.09E+00 and 1.00E+00 and 1.03E+00 | 1.08E+00 and 1.10E+00 and 1.07E+00 | 1.05E+00 and 1.09E+00 and 1.03E+00 | 1.01E+00 and 1.14E+00 and 9.74E-01 | 1.02E+00 and 1.01E+00 and 1.04E+00 | > 10 µM | 87.4% | 89.6% | > 10 µM | 

Reference: article PMC9403976, “Elucidating the path to Plasmodium prolyl-tRNA synthetase inhibitors that overcome halofuginone resistance” (Nature Communications, 2022)
